Cc1c(N)c(=O)n(-c2ccccc2)n1C
solubility (mole fraction)
Details | in acetone | in ethanol | in ethyl acetate | in isopropanol | in methanol | in n-butanol | in n-propanol | in sec-butanol | in water
299.05 K | 0.37 | 0.22 | 0.08 | 0.19 | 0.23 | 0.15 | 0.21 | 0.14 | 0.13
303.15 K | 0.4 | 0.25 | 0.09 | 0.22 | 0.25 | 0.17 | 0.24 | 0.16 | 0.15
307.25 K | 0.43 | 0.28 | 0.11 | 0.25 | 0.28 | 0.19 | 0.28 | 0.18 | 0.17
311.05 K | 0.44 | 0.31 | 0.13 | 0.29 | 0.31 | 0.21 | 0.31 | 0.2 | 0.19
315.15 K | 0.47 | 0.35 | 0.15 | 0.32 | 0.34 | 0.24 | 0.35 | 0.23 | 0.22
321.05 K | 0.52 | 0.41 | 0.2 | 0.38 | 0.39 | 0.29 | 0.41 | 0.27 | 0.27
327.15 K | 0.55 | 0.48 | 0.25 | 0.45 | 0.44 | 0.34 | 0.46 | 0.31 | 0.33
338.35 K | 0.62 | 0.6 | 0.36 | 0.57 | 0.57 | 0.46 | 0.59 | 0.41 | 0.44
